In experiment [1] the test system is human artery wall cell cocultures. Description: LDL oxidation by human artery wall cell cocultures (lipid hydroperoxides). The format is cell-based. To be noted: for oxidation of LDL by fatty acid pretreated artery wall cells: cocultures 18 hours with 100 μM fatty acid, washed, then LDL 250 μg/ml; for ability of pretreated artery wall cocultures to oxidize LDL: cocultures incubated 8 hrs with agent, agent removed before LDL 250 μg/ml; for reduction in lipid hydroperoxide levels: cocultures preincubated with inhibitor 1×10^−8 mol/L before addition of LDL 250 μg/ml, 8 hrs. Here is the method:
(§1) The wells of the microtiter plates were treated with 0.1% gelatin at 37° C. overnight. HASMC were added at a confluent density of 1×10^5 cells/cm^2. Cells were cultured for 2 d at which time they had covered the entire surface of the well and had produced a substantial amount of extracellular matrix. HAEC were subsequently added at 2×10^5 cells/cm^2 and were allowed to grow forming a complete monolayer of confluent HAEC in 2 d. In all experiments, HAEC and autologous HASMC (from the same donor) were used at passage levels of four to six.
(§2) In general, the cocultures were treated with native LDL (250 μg/ml) in the absence or presence of HDL for 8 h. The supernatants were collected and used for determination of lipid hydroperoxide levels. The cocultures were subsequently washed and fresh culture medium 199 (M199) without any additions was added and incubated for an additional 8 hrs. This allowed the collection of monocyte chemotactic activity released by the cells as a result of stimulation by the oxidized LDL. At the end of incubation, the supernatants were collected from cocultures, diluted 40-fold, and assayed for monocyte chemotactic activity. Briefly, the supernatant was added to a standard Neuroprobe chamber (NeuroProbe, Cabin John, Md.), with monocytes added to the top. The chamber was incubated for 60 min at 37° C. After the incubation, the chamber was disassembled and the nonmigrated monocytes were wiped off. The membrane was then air dried and fixed with 1% glutaraldehyde and stained with 0.1% Crystal Violet dye. The number of migrated monocytes was determined microscopically and expressed as the mean±SD of 12 standardized high power fields counted in quadruple wells.
(§3) Statistical significance was determined by model 1 ANOVA. […] Significance is defined as p<0.05.
Human artery wall cocultures were preincubated with ETYA at a concentration of 10^−8 mol/L or with cinnamyl-3,4-dihydroxy-α-cyanocynamate (CDC, from Biomol) at a concentration of 10^−8 mol/L in M199 containing 10% LPDS for 30 min. The cocultures were then washed and LDL was added at 250 μg/ml and incubated for 8 hrs.

For experiment [2], the system named is paraoxonase. To be noted: mice, six hours after injection.
In experiment [3] the test system is human artery wall cell cocultures. Description: Monocyte chemotaxis assay on coculture conditioned medium. The format is cell-based. Conditions: for LDL-induced monocyte chemotaxis in pretreated cocultures: cocultures incubated 8 hrs with agent, agent removed before LDL; for LDL-induced monocyte chemotaxis in fatty acid pretreated cocultures: cocultures 18 hours with 100 μM fatty acid, washed, then LDL; for decrease in LDL-induced monocyte chemotactic activity: cocultures preincubated with inhibitor 1×10^−8 mol/L before addition of LDL 250 μg/ml. On the procedure:
as §1
Monocytes were isolated using a modification of the Recalde method as previously described (Fogelman et al. (1988) J. Lipid Res. 29: 1243-1247) from the blood of normal volunteers after obtaining written consent under a protocol approved by the human research subject protection committee of the University of California, Los Angeles.
as §2

Experiment [4] in a line: Non-enzymatic oxidation of PAPC to POVPC, PGPC, PEIPC (ESI-MS). Conditions: for amount that significantly decreased PAPC and increased the three oxidized phospholipids: added to 10 μg of PAPC for 8 hours.
The test system of experiment [5] is human artery wall cell cocultures. The experiment is described as follows: Hydroperoxide content of apo A-I lipid extract from fatty acid treated cocultures. The format is cell-based. Conditions: cocultures with or without C18:2, then apo A-I 100 μg/ml 3 hrs. Here is the method: The medium was removed and the cultures washed three times. Fresh medium without fatty acids was added and the cultures were incubated at 37° C. for an additional 3 hrs. […] at 250 μg/ml was then added to one set of the cocultures in M199 containing 10% LPDS and incubated for 8 hrs. The medium was then removed and lipid hydroperoxides (Panel A) and monocyte chemotactic activity (Panel B) determined. To the second set of cocultures (Panel C) apo A-I was added at 100 μg/ml and incubated for three more hours with gentle mixing at 37° C. […] Values are mean±SD of triplicate determinations. The asterisks denote p<0.001. […] (1991) Drug Metab. Dispos. 19: 100-106). Statistical significance was determined by model 1 ANOVA. […] Significance is defined as p<0.05.

Experiment [6] deals with HAEC monolayers. The experiment is described as follows: Monocyte adhesion assay. Conditions: LDL 250 μg pre-incubated with agent 4 hrs, re-isolated. The format is cell-based, human. Here is the method:
In brief, HAEC monolayers, in 48-well tissue culture plates were incubated with the desired LDL or phospholipid for 4 hrs at 37° C. as described (Watson et al. (1995) J. Clin. Invest. 96: 2882-2891). After washing, a suspension of human peripheral blood monocytes was added and incubated for 10 min. The loosely adherent monocytes were then washed away, the monolayers were fixed and the number of adherent monocytes counted in 9 high power microscopic fields.
Freshly isolated LDL (250 μg) was incubated with pure 13(S)-HPODE (1.0 μg) in 10% LPDS in M 199 for 4 hrs at 37° C. with gentle mixing. LDL was re-isolated by centrifugation and was incubated with monolayers of human aortic endothelial cells. […] The endothelial monolayer was washed after each time point and a monocyte suspension was added, incubated, washed, and the number of adherent monocytes determined.
Freshly isolated LDL (250 μg) was incubated with 10 units of pure soybean lipoxygenase bound to sepharose beads for 4 hrs at 37° C. with gentle mixing. […] The endothelial monolayer was washed after each time point and monocyte adhesion determined.
Blood samples were collected from patients referred to the cardiac catheterization laboratory at The Center for Health Sciences at the University of California, Los Angeles. […] The HDL-Ox-PAPC mixture was then added to endothelial monolayers and monocyte binding was determined.

Experiment [7] is described as follows: Non-enzymatic formation of cholesteryl linoleate hydroperoxide (RP-HPLC). Conditions: 0.5 μg/ml with cholesteryl linoleate 10 μg/ml, air oxidation 6 hrs. On the procedure: […] 0.5 μg/ml (Panel A) or cholesteryl linoleate 10 μg/ml (Panel B) or cholesteryl linoleate 10 μg/ml together with 13(S) HPODE 0.5 μg/ml (Panel C) in chloroform/methanol (2:1, v/v) containing 0.01% BHT was briefly swirled to mix and evaporated to dryness under argon and allowed to undergo air oxidation in a laminar flow hood for 6 hrs. The lipids were solubilized in 50 μl of chloroform and analyzed for the presence of cholesteryl linoleate hydroperoxide (Ch18:2-OOH) by RP-HPLC as described herein.
Fast performance liquid chromatography (FPLC) and reverse phase high performance liquid chromatography ([…]) were performed as described in example 1. For the detection of cholesteryl linoleate hydroperoxide an Alltech Alltima 250×4.6 mm, 5 micron RP-HPLC C18 column was used to separate and detect cholesteryl linoleate hydroperoxide at 234 nm and cholesteryl linoleate at 205 nm. The mobile solvent consisted of acetonitrile/2-propanol/water (44:54:2, v/v/v) at 1.0 ml/min. Lipids were resuspended in the mobile solvent for injection.

For experiment [8], the system named is human aortic endothelial cells. The experiment is described as follows: Lipid hydroperoxide formation when treated LDL is added to HAEC. Conditions: LDL 250 μg pre-incubated with agent 4 hrs, re-isolated. The format is cell-based. On the procedure: Freshly isolated LDL (250 μg) was incubated with pure 13(S)-HPODE (1.0 μg) in 10% LPDS in M 199 for 4 hrs at 37° C. with gentle mixing. LDL was re-isolated by centrifugation and was incubated with monolayers of human aortic endothelial cells. Supernatants were removed at time points ranging from zero to 5 hours and were assayed for lipid hydroperoxide content. The endothelial monolayer was washed after each time point and a monocyte suspension was added, incubated, washed, and the number of adherent monocytes determined.
Freshly isolated LDL (250 μg) was incubated with 10 units of pure soybean lipoxygenase bound to sepharose beads for 4 hrs at 37° C. with gentle mixing. LDL was re-isolated by centrifugation and incubated with monolayers of HAEC. Supernatants were removed at time points ranging from zero to 4 hours and were assayed for lipid hydroperoxide content. The endothelial monolayer was washed after each time point and monocyte adhesion determined.
as §3

Experimental findings from patent publication US7250304B2, “Functional assay of high-density lipoprotein” (The Regents of the University of California, priority 2000, dated 2007) are described below.

With `CCCCC/C=C\C/C=C\C/C=C\C/C=C\CCCC(=O)O` [arachidonic acid], the “oxidation of LDL by fatty acid pretreated artery wall cells” value (“oxidation of LDL” for short) in experiment [1] is given as “even more potent than linoleic acid”.
As for “apo A-II: Human apo A-II obtained from Sigma”, the “ability of pretreated artery wall cocultures to oxidize LDL” value in experiment [1] is “retained their ability to oxidize LDL”. Moreover, the “PON activity in plasma and HDL, increase” value in experiment [2] is reported as “did not change”. In experiment [3], the “LDL-induced monocyte chemotaxis in pretreated cocultures” value is reported as “induce monocyte chemotaxis”.
Regarding `OO` [hydrogen peroxide], the “effect on relative abundance of PAPC and formation of oxidized phospholipids” value in experiment [4] (2 mM and 4 mM, 10 μg PAPC, 8 hours) is “had no effect”. The “effect on relative abundance of PAPC” value in experiment [4] (8 mM added to 10 μg PAPC for 8 hours) is “dramatically decreased the relative abundance of PAPC”.
As for `CCCCCCCC/C=C\CCCCCCCC(=O)O` [oleic acid], the “oxidation of LDL” value in experiment [1] is reported as “not”. In addition, the “LDL-induced monocyte chemotaxis in fatty acid pretreated cocultures” value in experiment [3] was “not”.
Consider `CCCCC/C=C\C/C=C\CCCCCCCC(=O)O` [linoleic acid], for which the “13-HPODE equivalents in the lipid extract of apo A-I” value in experiment [5] is on record as “dramatically increased the 13-HPODE equivalents”. The “oxidation of LDL” value in experiment [1] is listed as “stimulates the oxidation of LDL by artery wall cells”. Moreover, the “LDL-induced monocyte chemotaxis in fatty acid pretreated cocultures” value in experiment [3] is reported as “stimulates LDL-induced monocyte chemotaxis”.
Consider `CCCCCC#CCC#CCC#CCC#CCCCC(=O)O` [ETYA, 5,8,11,14-eicosatetraynoic acid], for which, in experiment [1], the “reduction in lipid hydroperoxide levels” value was 80±7%. Besides, the “decrease in LDL-induced monocyte chemotactic activity” value in experiment [3] was 75±10%.
Regarding `CCCCC[C@@H](/C=C/C=C\CCCCCCCC(=O)O)OO` [13(S)-HPODE, 13(S)-hydroperoxyoctadecadienoic acid], in experiment [4], the “ability to oxidize PAPC on a molar basis relative to hydrogen peroxide” value was “more than two orders of magnitude greater”; the “amount that significantly decreased PAPC and increased the three oxidized phospholipids” value turned out to be 0.5 µg. Also, the “formation of POVPC, PGPC, PEIPC from PAPC as a function of time” value in experiment [4] (1.0 μg added to 10 μg PAPC, air oxidation) is recorded as “enhanced the formation of the three biologically active oxidized phospholipids at each time point sampled”. Also, in experiment [6], the “monocyte adherence to HAEC induced by treated LDL” value is “increased monocyte adherence to HAEC”. For the same compound, the “non-enzymatic formation of cholesteryl linoleate hydroperoxide (Ch18:2-OOH)” value in experiment [7] is on record as “markedly stimulated the non-enzymatic formation of cholesteryl linoleate hydroperoxide”. The “formation of lipid hydroperoxides when treated LDL added to HAEC” value in experiment [8] was “increased the formation of lipid hydroperoxides”.
In the case of `N#CC(=Cc1ccc(O)c(O)c1)C(=O)OCC=Cc1ccccc1` [CDC, cinnamyl-3,4-dihydroxy-α-cyanocynamate], the “reduction in lipid hydroperoxide levels” value in experiment [1] was determined as 73±6%. Further, the “decrease in LDL-induced monocyte chemotactic activity” value in experiment [3] was determined as 74±11%.
For “DWL KAF YDK VAE KLK EAF PDW LKA FYD KVA EKL KEA F (DWLKAFYDKVAEKLKEAFPDWLKAFYDKVAEKLKEAF; Synthetic apo A-I peptide mimetic) [37 pA]”, the “ability of pretreated artery wall cocultures to oxidize LDL” value in experiment [1] was “unable to oxidize the added LDL”. In experiment [3], the “LDL-induced monocyte chemotaxis in pretreated cocultures” value is “did not induce monocyte chemotaxis”. For the same compound, in experiment [3] (human LDL incubated with agent, re-isolated, then cocultures), the “LDL-induced monocyte chemotactic activity of LDL pre-incubated with the agent” value is given as “did not induce monocyte chemotactic activity”.
With `CCCCC[C@@H](/C=C/C=C\C/C=C\C/C=C\CCCC(=O)O)OO` [15(S)-HPETE, 15(S)-hydroperoxyeicosatetraenoic acid], in experiment [4], the “ability to oxidize PAPC on a molar basis relative to hydrogen peroxide” value is “more than two orders of magnitude greater”; the “amount that significantly decreased PAPC and increased the three oxidized phospholipids” value was 0.5 µg.
